Assay results reported in paper PMC3767463 (Journal of the American Chemical Society, 2013).

Experiments:
DU145 cells = experiment: MTT cell viability; format: cell-based, human; conditions: DU145 (non-functional p53), 0–100 μM, 48 h
PC3 cells = experiment: MTT cell viability; format: cell-based, human; conditions: PC3 (non-functional p53), 0–100 μM, 48 h
p53 level = format: cell-based, human; conditions: LNCaP; 50 μM MCo-PMI, 8–48 h; western blot
HdmX level = experiment: Western blot of LNCaP cell extracts; format: cell-based, human; conditions: 48 h, cyclotides 50 μM
caspase-3/7 = experiment: Caspase-3/7 assay in LNCaP cells; format: cell-based, human; conditions: LNCaP cells treated 30 h
LNCaP cells = experiment: Propidium iodide flow cytometric cell cycle assay; format: cell-based, human; conditions: LNCaP cells treated 24 h; propidium iodide flow cytometry
[1] = mice, MCo-PMI 40 mg/kg i.v. daily
in vitro = conditions: human, human serum
HBL100 cells = experiment: MTT cell viability; conditions: HBL100 normal breast epithelial cells, 48 h, triplicate

percent bound (serum proteins (human)) [%]	Molecule	Effect on cell viability (DU145 cells)	Effect on cell viability (PC3 cells)	Time of peak p53 level post-treatment (p53 level) [h]	Effect on intracellular HdmX level (HdmX level)	Caspase-3/7 activation (caspase-3/7)	Effect on cell cycle progression (LNCaP cells)	Association constant rate to human serum proteins [M⁻¹ s⁻¹]	Dissociation constant rate from human serum proteins [s⁻¹]	Body weight throughout treatment [1]	Organs and tissues at necropsy [1]	half-life (in vitro) [h]	EC50, cytotoxicity to non-cancerous cells (HBL100 cells) [µM]
	CC[C@H](C)[C@@H]1NC(=O)[C@@H]2CSSC[C@@H]3NC(=O)[C@H](C(C)C)NC(=O)CNC(=O)CNC(=O)[C@H](C)NC(=O)[C@H](CO)NC(=O)[C@H](CC(C)C)NC(=O)[C@H](CC(C)C)NC(=O)[C@H](CC(N)=O)NC(=O)[C@H](Cc4c[nH]c5ccccc45)NC(=O)[C@H](Cc4ccc(O)cc4)NC(=O)[C@H](CCC(=O)O)NC(=O)[C@H](C)NC(=O)[C@H](Cc4ccccc4)NC(=O)[C@H](CO)NC(=O)[C@H]([C@@H](C)O)NC(=O)[C@@H]4CCCN4C(=O)[C@H](C)NC(=O)[C@H](CCCCN)NC(=O)[C@H](CO)NC(=O)[C@H](C)NC(=O)CNC(=O)[C@H](CO)NC(=O)CNC(=O)[C@H](CO)NC(=O)CNC(=O)[C@@H]4CSSC[C@H](NC(=O)[C@H](CC(=O)O)NC(=O)[C@H](CO)NC(=O)[C@H](CC(=O)O)NC(=O)[C@H](CCCNC(=N)N)NC(=O)[C@H](CCCNC(=N)N)NC(=O)[C@H](CSSC[C@H](NC1=O)C(=O)N[C@@H](CCCNC(=N)N)C(=O)NCC(=O)N[C@@H](CC(N)=O)C(=O)NCC(=O)N[C@@H](Cc1ccc(O)cc1)C(=O)N4)NC(=O)[C@H](CCCNC(=N)N)NC(=O)[C@H](CCC(N)=O)NC(=O)[C@H](CC(C)C)NC(=O)[C@H]([C@@H](C)CC)NC(=O)[C@H](CCCCN)NC(=O)[C@@H]1CCCN1C3=O)C(=O)N1CCC[C@H]1C(=O)NCC(=O)N[C@@H](C)C(=O)N2 [MCo-PMI]	unaffected	unaffected	36 to 48	downregulated	dose-dependent caspase-3 activation	depression of the S-phase fraction	2400	0.022	maintained healthy weight	no gross abnormalities	30 ± 4	
	COc1ccc(C2=N[C@@H](c3ccc(Cl)cc3)[C@@H](c3ccc(Cl)cc3)N2C(=O)N2CCNC(=O)C2)c(OC(C)C)c1 [Nutlin-3, reference compound]	unaffected	unaffected				depression of the S-phase fraction						33 ± 5
80	cyclo(SGSDGGVCPKILQRCRRDSDCPGACICRGNGYCG) (natural protein, disulfide (positions not given here)) [cyclotide Momordica cochinchinensis trypsin inhibitor-I]												
